Source: patent US5385842A, “Anthraquinones as inhibitors of sulfide production from sulfate-reducing bacteria” (E. I. Du Pont de Nemours and Company, priority 1993, dated 1995)

Assays:
[1] = tested on: B. aureus, B. subtilis, B. stearothermophilus and S. aureus; details: background art; cited from earlier work
[2] = tested on: Desulfovibrio desulfuricans G100A; experiment: microbe, parasite or virus in culture; format: cell-based; details: for inhibition at 10 ppm / inhibition at 30 ppm: Desulfovibrio desulfuricans, G100A, read-out: % Inhib. (inhibition of sulfide production)
[3] = tested on: E. coli, Pseudomonas, Salmonella or Sarcina; details: background art; cited from earlier work
[4] = tested on: Bacillus, Nocardia, Streptomyces, Proteus; details: background art; cited from earlier work
[5] = tested on: D. desulfuricans #ATCC27774; experiment: Respiration rate (hydrogen gas uptake) with sulfate as electron acceptor; details: Desulfovibrio desulfuricans, ATCC27774, 4 h, pH 7, read-out: Gas Uptake (as percent of control)
D. desulfuricans G100A [6] = experiment: Growth of D. desulfuricans G100A after addition of inhibitor at 12 h; format: cell-based
Protocol: Four 10 ml culture tubes of BTZ-3 medium as defined in Example 1 supplemented with sodium lactate (40 mM) and sodium sulfate (30 mM) and 0.5 ml of reducing agent were inoculated with 100 ul of a fully grown suspension of D. desulfuricans G100A. The culture was allowed to grow and the optical density at 660 nm was monitored until the cells entered into exponential growth (approx. 12-15 h, O.D. 660=0.1-0.2). At this time 100 ul of a 300 ppm solution of 1,8 dihydroxyanthraquinone, 1-chloranthraquinone or 3-chloro-2-anthraquinone carboxylic acid, respectively, was added to one of the tubes. The ethanol:water (80:20) solvent (100 μl ) was added to the fourth tube to serve as an uninhibited control.
#3 ppm inhibitor added at 12 hours

D. desulfuricans G100A [7] = experiment: Effect of dithionite-reduced anthraquinones on growth of D. desulfuricans G100A; format: cell-based
Protocol: Three anthraquinones, 1,8-dihydroxy-, 1-chloro-, and 3-chloro-2-carboxy- were prepared as 1 ml of 1000 ppm solutions in acetone for the first two compounds or water for the third. These solutions were then treated with 1 mg of the strong reducing agent, sodium dithionite. 50 ul of each solution (for a final culture concentration of 5 ppm) was used immediately to treat growing cultures of D. desulfuricans G100A in BTZ-3 medium as defined in Example 1. The compounds were added to the 10 ml cultures at 15 h of growth.

Desulfovibrio gigas = experiment: Sulfide production by resting cells of D. gigas; format: cell-based; details: for activity at 0.1 ppm / activity at 0.5 ppm / activity at 2 ppm / activity at 5 ppm: Desulfovibrio, 3 hours at 31° C.; for inhibition of sulfide production (in words): resting cells
Protocol: Experiments in this example were carried out using resting cells of Desulfovibrio gigas rather than growing cells as was the case for the autoanalyzer system employing the Desulfovibrio desulfuricans G100A strain. […] Thus the experiment examined a different organism, different test system, and a different physiological state for the phenomenon of anthraquinone inhibition of sulfide production by Desulfovibrio sp. Active compounds, as determined by the autoanalyzer, were evaluated in comparison with four additional compounds not evaluated in the autoanalyzer.
500 ml cultures of Desulfovibrio gigas were grown on standard BTZ-3 medium as previously described in Example 1 with 30 mM sodium lactate, 30 mM sodium sulfate and 30 mM sodium fumarate. The culture was harvested after 24 h of growth at 31° C. by centrifugation at 8000 rpm in a GSA Sorvall rotor for 20 minutes. The cell pellet was resuspended in 30 ml of incubation assay mixture of the following composition: 50 mM HEPES buffer pH 7 buffer, 2.5 mM sodium lactate, 2.5 mM sodium sulfate. This suspension was centrifuged again at 10,000 rpm in a Sorvall SS-34 rotor for 5 minutes. The resulting cell pellet was resuspended in 5 ml of incubation assay buffer. Cell densities were generally near 10e10 cells/mi.
The samples were assayed for production in the presence of anthraquinones. 200 ul of the cell suspension was added to 1.2 ml of incubation assay mixture in a 5 ml capacity test tube. The tube was gassed with hydrogen gas for 20 minutes then the anthraquinones were added as ethanolic solutions, the tubes were then gassed with hydrogen again for 5 minutes. The reaction mixtures were then incubated for 3 hours at 31° C. The reactions were stopped by the addition of 200 ul of 1N sodium hydroxide. After 20 minutes the alkaline mixtures were centrifuged in a table top microfuge for 4 minutes at 14,000 rpm to remove cells and cell debris. The supernatant was then assayed for sulfide using the ferric chloride-DPD reagent system as described by Siegel et al., Anal. Blochem., 11:126-132, 1965, herein incorporated by reference.

[8] = tested on: sulfate-reducing bacteria; details: background art; cited from earlier work
bacteria = details: background art; cited from earlier work
anaerobic bacteria = details: background art; cited from earlier work
[9] = 0 h of growth, before addition of 3 ppm inhibitor at 12 h
[10] = 10 h of growth, before addition of 3 ppm inhibitor at 12 h
[11] = 12 h of growth, 3 ppm inhibitor added at 12 h
[12] = 14 h of growth, 3 ppm inhibitor added at 12 h
[13] = 18 h of growth, 3 ppm inhibitor added at 12 h
[14] = 20 h of growth, 3 ppm inhibitor added at 12 h
[15] = 24 h of growth, 3 ppm inhibitor added at 12 h
[16] = 29 h of growth, 3 ppm inhibitor added at 12 h
[17] = 34 h of growth, 3 ppm inhibitor added at 12 h
[18] = 62 h of growth, 3 ppm inhibitor added at 12 h
[19] = 92 h of growth, 3 ppm inhibitor added at 12 h
[20] = 0 h, before addition of 5 ppm dithionite-reduced compound at 15 h, control 0.02
[21] = 2 h, before addition of 5 ppm dithionite-reduced compound at 15 h, control 0.02
[22] = 12 h, before addition of 5 ppm dithionite-reduced compound at 15 h, control 0.08
[23] = 15 h, time of addition of 5 ppm dithionite-reduced compound, control 0.18
[24] = 17 h, 5 ppm dithionite-reduced compound added at 15 h, control 0.26
[25] = 20 h, 5 ppm dithionite-reduced compound added at 15 h, control 0.37
[26] = 25 h, 5 ppm dithionite-reduced compound added at 15 h, control 0.50
[27] = 30 h, 5 ppm dithionite-reduced compound added at 15 h, control 0.98
[28] = 45 h, 5 ppm dithionite-reduced compound added at 15 h, control 1.50

## O=C1c2ccccc2C(=O)c2c1ccc(O)c2O [1,2-Dihydroxyanthraquinone]
[1]
  antibacterial activity (in words): either inactive against these strains or required concentrations in excess of 100 to 1000 ppm for inhibition
[2]
  inhibition at 10 ppm: 68.9%

## O=C1c2cc(O)cc(O)c2C(=O)c2c(O)ccc(O)c21 [1,4,6,8-tetrahydroxyanthraquinone]
[3]
  antibacterial activity (in words): did not affect any species of E. coli, Pseudomonas, Salmonella or Sarcina
[4]
  antibacterial activity (in words): inhibited 4 species of Bacillus, one strain of Nocardia, one strain (out of four tested) of Streptomyces and one of the Gram negative Proteus

## Nc1ccc(O)c2c1C(=O)c1ccccc1C2=O [1-Amino-4-hydroxyanthraquinone]
[1]
  antibacterial activity (in words): either inactive against these strains or required concentrations in excess of 100 to 1000 ppm for inhibition
[2]
  inhibition at 30 ppm: 54.3%

## O=C1c2ccccc2C(=O)c2c(Cl)cccc21 [1-Chloroanthraquinone]
[5]
  activity at 0.6 ppm: 74%
  activity at 1.5 ppm: 50%
  activity at 3 ppm: 38%
D. desulfuricans G100A [6]; [9]
  optical density reading at 660 nm: .01
D. desulfuricans G100A [6]; [10]
  optical density reading at 660 nm: .11
D. desulfuricans G100A [6]; [11]
  optical density reading at 660 nm: .12
D. desulfuricans G100A [6]; [12]
  optical density reading at 660 nm: .12
D. desulfuricans G100A [6]; [13]
  optical density reading at 660 nm: .27
D. desulfuricans G100A [6]; [14]
  optical density reading at 660 nm: .32
D. desulfuricans G100A [6]; [15]
  optical density reading at 660 nm: .32
D. desulfuricans G100A [6]; [16]
  optical density reading at 660 nm: .30
D. desulfuricans G100A [6]; [17]
  optical density reading at 660 nm: .32
D. desulfuricans G100A [6]; [18]
  optical density reading at 660 nm: .26
D. desulfuricans G100A [6]; [19]
  optical density reading at 660 nm: .23
D. desulfuricans G100A [7]; [20]
  Optical Density @ 660 nm: 0.02
D. desulfuricans G100A [7]; [21]
  Optical Density @ 660 nm: 0.02
D. desulfuricans G100A [7]; [22]
  Optical Density @ 660 nm: 0.08
D. desulfuricans G100A [7]; [23]
  Optical Density @ 660 nm: 0.15
D. desulfuricans G100A [7]; [24]
  Optical Density @ 660 nm: 0.20
D. desulfuricans G100A [7]; [25]
  Optical Density @ 660 nm: 0.21
D. desulfuricans G100A [7]; [26]
  Optical Density @ 660 nm: 0.22
D. desulfuricans G100A [7]; [27]
  Optical Density @ 660 nm: 0.22
D. desulfuricans G100A [7]; [28]
  Optical Density @ 660 nm: 0.24
[2]
  inhibition at 30 ppm: 20.8%
Desulfovibrio gigas
  activity at 0.1 ppm: 81%
  activity at 0.5 ppm: 26%
  activity at 2 ppm: 1.6%
  activity at 5 ppm: 1.3%
  inhibition of sulfide production (in words): inhibitory properties

## N#Cc1cccc2c1C(=O)c1ccccc1C2=O [1-cyanoanthraquinone, 1-Cyanoanthraquinone]
Desulfovibrio gigas
  activity at 0.1 ppm: 118%
  activity at 0.5 ppm: 20%
  activity at 2 ppm: 6.7%
  activity at 5 ppm: 6.8%
  inhibition of sulfide production (in words): inhibitory effect

## O=C1c2ccccc2C(=O)c2c(F)cccc21 [1-fluoroanthraquinone, 1-Fluoroanthraquinone]
Desulfovibrio gigas
  activity at 0.1 ppm: 105%
  activity at 0.5 ppm: 23%
  activity at 2 ppm: 0.9%
  activity at 5 ppm: 0.9%
  inhibition of sulfide production (in words): inhibitory effect

## N#CC(Br)(Br)C(N)=O [2,2-Dibromo-3-nitrilopropionamide]
[8]
  effective / use concentration against sulfate-reducers: 3-12 ppm

## O=C(O)c1cc2c(cc1Cl)C(=O)c1ccccc1C2=O [2-Chloroanthraquinone-3-carboxylic acid, 3-Chloro-9,10-dihydro-9,10-dioxo-2-anthracenecarboxylic acid]
[5]
  activity at 0.6 ppm: 79%
  activity at 1.5 ppm: 55%
  activity at 3 ppm: 41%
D. desulfuricans G100A [6]; [9]
  optical density reading at 660 nm: .01
D. desulfuricans G100A [6]; [10]
  optical density reading at 660 nm: .10
D. desulfuricans G100A [6]; [11]
  optical density reading at 660 nm: .16
D. desulfuricans G100A [6]; [12]
  optical density reading at 660 nm: .21
D. desulfuricans G100A [6]; [13]
  optical density reading at 660 nm: .36
D. desulfuricans G100A [6]; [14]
  optical density reading at 660 nm: .38
D. desulfuricans G100A [6]; [15]
  optical density reading at 660 nm: .36
D. desulfuricans G100A [6]; [16]
  optical density reading at 660 nm: .37
D. desulfuricans G100A [6]; [17]
  optical density reading at 660 nm: .37
D. desulfuricans G100A [6]; [18]
  optical density reading at 660 nm: .34
D. desulfuricans G100A [6]; [19]
  optical density reading at 660 nm: .25
D. desulfuricans G100A [7]; [20]
  Optical Density @ 660 nm: 0.02
D. desulfuricans G100A [7]; [21]
  Optical Density @ 660 nm: 0.02
D. desulfuricans G100A [7]; [22]
  Optical Density @ 660 nm: 0.07
D. desulfuricans G100A [7]; [23]
  Optical Density @ 660 nm: 0.1
D. desulfuricans G100A [7]; [24]
  Optical Density @ 660 nm: 0.15
D. desulfuricans G100A [7]; [25]
  Optical Density @ 660 nm: 0.17
D. desulfuricans G100A [7]; [26]
  Optical Density @ 660 nm: 0.17
D. desulfuricans G100A [7]; [27]
  Optical Density @ 660 nm: 0.16
D. desulfuricans G100A [7]; [28]
  Optical Density @ 660 nm: 0.22
[2]
  inhibition at 10 ppm: 100%

## O=C1c2ccccc2C(=O)c2cc(Br)ccc21 [2-bromoanthraquinone, 2-Bromoanthraquinone]
Desulfovibrio gigas
  activity at 0.1 ppm: 99%
  activity at 0.5 ppm: 33%
  activity at 2 ppm: 0.6%
  activity at 5 ppm: 0.6%
  inhibition of sulfide production (in words): inhibitory effect

## O=C1c2ccccc2C(=O)c2cc(C(F)(F)F)ccc21 [2-trifluoromethylanthraquinone, 2-Trifluoromethylanthraquinone]
Desulfovibrio gigas
  activity at 0.1 ppm: 99%
  activity at 0.5 ppm: 17%
  activity at 2 ppm: 1.7%
  activity at 5 ppm: 1.5%
  inhibition of sulfide production (in words): inhibitory effect

## [H]/N=C(\N/C(=N/[H])NCCCCCCNC(=N)NC(=N)Nc1ccc(Cl)cc1)Nc1ccc(Cl)cc1 [Chlorhexidine, reference compound]
[2]
  inhibition of sulfide production (in words): inhibits sulfide production
[2]; Table III, Example 3
  % inhibition of sulfide formation: 88.7%
[8]
  effective / use concentration against sulfate-reducers: 1-10 ppm

## O=C(O)c1cc(O)c2c(c1)C(=O)c1cccc(O)c1C2=O [Rhein, 9,10-Dihydro-4,5-dihydroxy-9,10-dioxo-2-anthracenecarboxylic acid]
bacteria
  antibacterial activity (in words): active component of leaf extracts of Cassia sp.
[2]
  inhibition at 30 ppm: 48.6%

## Cc1ncc([N+](=O)[O-])n1CCO [metronidazole]
Anaerobic bacteria
  effectiveness (in words): generally effective against anaerobic bacteria

## molybdate
[8]
  effective / use concentration against sulfate-reducers: 1000-4000 ppm
